Data on 23 compounds can be found in patent US7232912B2, “Indazole compounds, pharmaceutical compositions, and methods for mediating or inhibiting cell proliferation” (Agouron Pharmaceuticals, Inc., priority 2000, dated 2007).

Holding throughout (format): biochemical
The target in assay [1] is T1, CDK2/cyclin A (Homo sapiens, UniProt P24941).
T1 construct: made in house; host or cells: CDK2: insect cells (baculovirus); cyclin A: E. coli
The assay can be described thus: Inhibition of CDK2/Cyclin A Retinoblastoma Kinase Activity. As to conditions: apparent Ki. A digest of the protocol: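 Baculovirus-expressed CDK2 complexed with proteolyzed cyclin A, at 150 nM or 5 nM, phosphorylating an Rb fragment with 25 µM [32/33P]ATP in HEPES pH 7.4, 2% DMSO. Reactions run 20 min at 30°C, EDTA-stopped, filter-captured; apparent Ki from competitive or tight-binding competitive fits.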

Assay [2] concerns the target T2, FGFR1 tyrosine kinase (Homo sapiens, UniProt P11362, C488A/C584S/L457V).
T2 construct: the cytosolic domain of FGFR1 tyrosine kinase (amino acids 456–766); made in house; host or cells: Sf9 insect cells (baculovirus)
The assay can be described thus: Inhibition of phosphorylated FGF receptor tyrosine kinase activity. As to conditions: for inhibition at 1 µM: read-out: FGF % Inhib. at 1 μM. Here is the method: Inhibition of Phosphorylated FGF Receptor and LCK Tyrosine Kinase Activity
Cloning, expression and purification of the cytosolic domain of FGFR1 tyrosine kinase (amino acids 456–766) containing three amino acid substitutions (L457V, C488A, and C584S) were conducted as previously described (Mohammadi, M., Schlessinger, J., & Hubbard, S. R. (1996) Cell 86, 577–587). This domain was expressed in Sf9 insect cells using a baculovirus expression vector, and protein was purified using conventional techniques. The LCK tyrosine kinase was expressed in insect cells as an N-terminal deletion starting from amino acid 223 to the end of the protein at amino acid 509. The N-terminus of the protein also had two amino acid substitutions, P223M and C 224D. Kinases were purified using conventional chromatographic methods.
Tyrosine kinase activity was measured using a coupled, continuous spectrophotometric assay, in which production of phosphorylated poly(Glu, Tyr; 4:1) substrate and ADP is coupled to the pyruvate kinase-catalyzed transfer of a phosphate from phosphoenolpyruvate to ADP, with generation of pyruvate and regeneration of ATP. Pyruvate production is in turn coupled to the lactate dehydrogenase-catalyzed reduction of pyruvate to form lactate, with concomitant conversion of NADH to NAD+. Loss of NADH is monitored by measuring absorbance at 340 nm (see e.g., Technikova-Dobrova et al., “Spectrophotometric determination of functional characteristics of protein kinases with coupled enzymatic assay,” FEBS Letters, vol. 292 (1991), pp. 69–72). Enzyme activity was measured in the presence of 200 mM HEPES (pH 7.5), 2 mM phosphoenolpyruvate, 0.3 mM NADH, 20 mM MgCl2, 100 μM ATP, 5 mM DTT, 5.1 or 25 mM poly (Glu,Tyr) 4:1 for P-FGF or P-LCK assays, respectively, and 15 units/mL each of pyruvate kinase and lactate dehydrogenase. Phosphorylated FGF receptor kinase was present at 100 nM and phosphorylated LCK kinase was present at 50 nM. Assays were performed under initial rate conditions at 37° C., and rates were corrected for any background rate measured in the absence of enzyme. Percent inhibition was calculated relative to control enzyme assayed in the presence of 2% (v/v) DMSO.

The target of assay [3] is CDK4/cyclin D3 (Homo sapiens, UniProt P11802). Briefly: Inhibition of CDK4/Cyclin D Retinoblastoma Kinase Activity. As to conditions: apparent Ki. A digest of the protocol:
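Human CDK4/cyclin D3 (full-length or cyclin D3 1–264), insect-cell expressed, at 5 or 50 nM with His-tagged Rb 386–928 substrate, 25 μM ATP plus [32P/33P]ATP, pH 7.4, 2% DMSO, 30 °C for 20 min; tight binders used 5 nM enzyme for 60 min. Filter-captured phospho-Rb quantified by phosphorimager. Apparent Ki from competitive or tight-binding inhibition fits.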

Structures are written as SMILES.

T2 sequence (P11362 456-766 L457V/C488A/C584S): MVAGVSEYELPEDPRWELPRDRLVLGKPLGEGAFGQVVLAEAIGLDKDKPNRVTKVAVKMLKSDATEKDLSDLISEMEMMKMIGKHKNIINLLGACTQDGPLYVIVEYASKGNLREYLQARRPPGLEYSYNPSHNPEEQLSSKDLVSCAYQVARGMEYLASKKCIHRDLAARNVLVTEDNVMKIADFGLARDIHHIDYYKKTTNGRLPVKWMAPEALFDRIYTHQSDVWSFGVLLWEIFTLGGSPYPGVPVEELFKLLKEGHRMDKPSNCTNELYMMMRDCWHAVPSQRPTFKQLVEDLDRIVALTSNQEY
Sequence of CDK4/cyclin D3 (P11802 2-303 limits assumed): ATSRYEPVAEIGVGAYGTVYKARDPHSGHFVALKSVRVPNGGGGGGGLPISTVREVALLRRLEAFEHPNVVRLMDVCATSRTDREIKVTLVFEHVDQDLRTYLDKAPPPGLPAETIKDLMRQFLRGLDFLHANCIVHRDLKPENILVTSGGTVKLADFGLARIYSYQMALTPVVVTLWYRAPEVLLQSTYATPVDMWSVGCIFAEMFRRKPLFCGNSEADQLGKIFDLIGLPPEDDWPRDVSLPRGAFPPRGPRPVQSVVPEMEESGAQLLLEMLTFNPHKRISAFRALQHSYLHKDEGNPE
Sequence of CDK4/cyclin D3 (P30281 1-264 limits assumed, further chain): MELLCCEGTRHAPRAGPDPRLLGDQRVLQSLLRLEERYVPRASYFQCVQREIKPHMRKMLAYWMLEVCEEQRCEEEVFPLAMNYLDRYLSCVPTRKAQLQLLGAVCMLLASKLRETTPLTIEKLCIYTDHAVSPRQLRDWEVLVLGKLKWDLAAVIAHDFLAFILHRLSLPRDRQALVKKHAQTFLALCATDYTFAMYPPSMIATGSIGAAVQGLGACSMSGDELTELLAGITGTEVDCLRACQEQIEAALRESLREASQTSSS

For the compound `Cc1c(CCCO)cncc1-c1ccc2[nH]nc(-c3nc4ccccc4[nH]3)c2c1` [Example 60, (E)-3-{5-[3-(1H-Benzoimidazol-2-yl)-1H-indazol-5-yl]-4-methyl-pyridin-3-yl}-propan-1-ol], the Ki is 0.6 nM in assay [1] and 1.6 nM in assay [3]. The inhibition at 1 µM in assay [2] turned out to be 40.8%.

Regarding `CS(=O)(=O)Nc1ccc2nc(-c3n[nH]c4ccc(-c5cncc6ccccc56)cc34)[nH]c2c1` [Example 70, N-[2-(5-Isoquinolin-4-yl-1H-indazol-3-yl)-3H-benzoimidazol-5-yl]-methanesulfonamide], the Ki in assay [1] worked out at 0.23 nM; in assay [3], 1.8 nM. Further, the inhibition at 1 µM in assay [2] stood at 63%.

As to `Fc1ccccc1-c1ccc2[nH]nc(-c3nc4ccccc4[nH]3)c2c1` [Example 6, 3-(1H-Benzoimidazol-2-yl)-5-(2-fluorophenyl)-1H-Indazole], the Ki worked out at 160 nM in assay [1] and 200 nM in assay [3]. Besides, the inhibition at 1 µM in assay [2] worked out at 53%.

For `Cc1c(-c2cccnc2)cncc1-c1ccc2[nH]nc(-c3nc4ccccc4[nH]3)c2c1` [Example 58], the Ki in assay [1] worked out at 1 nM; in assay [2] it was 3000 nM; in assay [3], 6.7 nM. In assay [2], the inhibition at 1 µM was determined as 20.3%.

Turning to `CCc1cncc(-c2ccc3[nH]nc(/C=C/c4ccccc4)c3c2)c1Cl` [Example 46, 5-(4-Chloro-5-ethyl-pyridin-3-yl)-3-(E)-styryl-1H-indazole], the Ki in assay [1] stood at 28 nM; in assay [3] it was 30 nM. In addition, in assay [2], the inhibition at 1 µM is 50.5%.

With `Cc1c(O)cccc1-c1ccc2[nH]nc(-c3nc4ccccc4[nH]3)c2c1` [10′, 3-[3-(1H-Benzoimidazol-2-yl)-1H-indazol-5-yl]-2-methyl-phenol], the Ki came out at 33 nM in assay [1] and 74 nM in assay [3]. In addition, in assay [2], the inhibition at 1 µM was determined as 61%.

Turning to `Cc1c(O)cccc1-c1ccc2[nH]nc(/C=C/c3ccccc3)c2c1` [15′, 2-Methyl-3-[3-((E)-styryl)-1H-indazol-5-yl]-phenol], the Ki in assay [1] worked out at 62 nM; in assay [3], 18 nM. Further, the inhibition at 1 µM in assay [2] turned out to be 87%.

As for `CCN(CC)Cc1cccc2[nH]c(-c3n[nH]c4ccc(-c5cncc6ccccc56)cc34)nc12` [Example 36, Diethyl-[2-(5-isoquinolin-4-yl-1H-indazol-3-yl)-1H-benzoimidazol-4-ylmethyl]-amine], the Ki worked out at 1 nM in assay [1] and 2.3 nM in assay [3]. Moreover, the inhibition at 1 µM in assay [2] stood at 55.8%.

As to `Cc1c(/C=C/CO)cncc1-c1ccc2[nH]nc(-c3nc4ccccc4[nH]3)c2c1` [Example 59, (E)-3-{5-[3-(1H-Benzoimidazol-2-yl)-1H-indazol-5-yl]-4-methyl-pyridin-3-yl}-prop-2-en-1-ol], the Ki in assay [1] worked out at 0.58 nM; in assay [3], 1.6 nM. The inhibition at 1 µM in assay [2] is 47.6%.

`CCNCc1cncc(-c2ccc3[nH]nc(-c4nc5ccccc5[nH]4)c3c2)c1C` [Example 74, {5-[3-(1H-Benzoimidazol-2-yl)-1H-indazol-5-yl]-4-methyl-pyridin-3-ylmethyl}-ethyl-amine]: the Ki in assay [1] amounted to 1.6 nM; in assay [3], 0.52 nM. In assay [2], the inhibition at 1 µM came to 82.6%.

Turning to `Cc1c(CN(C)C)cncc1-c1ccc2[nH]nc(-c3nc4ccccc4[nH]3)c2c1` [Example 73, {5-[3-(1H-Benzoimidazol-2-yl)-1H-indazol-5-yl]-4-methyl-pyridin-3-ylmethyl}-dimethyl-amine], the results for the Ki in assay [1] and in assay [3] were 2.7 nM and 6.9 nM, respectively. Also, the inhibition at 1 µM in assay [2] amounted to 42.9%.

`CC(C)NCc1cccc2[nH]c(-c3n[nH]c4ccc(-c5cncc6ccccc56)cc34)nc12` [Example 38, Isopropyl-[2-(5-isoquinolin-4-yl-1H-indazol-3-yl)-1H-benzoimidazol-4-ylmethyl]-amine]: the values for the Ki in assay [1] and in assay [3] were 1 nM and 0.798 nM, respectively. For the same compound, the inhibition at 1 µM in assay [2] is 42.4%.

`Cc1c(-c2cccc(CO)c2)cncc1-c1ccc2[nH]nc(-c3nc4ccccc4[nH]3)c2c1` [Example 69, (3-{5-[3-(1H-Benzoimidazol-2-yl)-1H-indazol-5-yl]-4-methyl-pyridin-3-yl}-phenyl)-methanol]: the Ki worked out at 4.1 nM in assay [1] and 15 nM in assay [3]. Also, the inhibition at 1 µM in assay [2] worked out at 25.6%.

In the case of `C(=C\c1n[nH]c2ccc(-c3cncc4ccccc34)cc12)/c1ccccc1` [Example 16], the Ki in assay [1] came out at 15 nM; in assay [2], 1000 nM; in assay [3], 35 nM.

Turning to `Cc1c(-c2ccncc2)cncc1-c1ccc2[nH]nc(-c3nc4ccc(NS(C)(=O)=O)cc4[nH]3)c2c1` [Example 71, N-{2-[5-(4-methyl-[3,4′]bipyridinyl-5-yl)-1H-indazol-3-yl)-3H-benzoimidazol-5-yl]-methanesulfonamide], the figures for the Ki in assay [1] and in assay [3] were 1 nM and 0.85 nM, respectively. For the same compound, the inhibition at 1 µM in assay [2] amounted to 28.8%.

For the compound `c1ccc2[nH]c(-c3n[nH]c4ccc(-c5cccc6[nH]ccc56)cc34)nc2c1` [Example 48, 3-(1H-Benzoimidazol-2-yl)-5-(1H-indol-4-yl)-1H-indazole], the figures for the Ki in assay [1] and in assay [3] were 55 nM and 21 nM, respectively. The inhibition at 1 µM in assay [2] was 68.5%.

Take `Clc1ccncc1-c1ccc2[nH]nc(-c3nc4ccccc4[nH]3)c2c1` [Example 52, 3-(1H-Benzoimidazol-2-yl)-5-(4-chloro-pyridin-3-yl)-1H-indazole]: the Ki in assay [1] was 2.6 nM; in assay [3], 3.5 nM. For the same compound, the inhibition at 1 µM in assay [2] was 55%.

Take `Cc1c(-c2ccncc2)cncc1-c1ccc2[nH]nc(-c3nc4ccccc4[nH]3)c2c1` [Example 53, 5-[3-(1H-Benzoimidazol-2-yl)-1H-indazol-5-yl]-4-methyl-[3,4′]bipyridinyl]: the Ki was determined as 0.29 nM in assay [1] and 2.6 nM in assay [3]. Besides, in assay [2], the inhibition at 1 µM came out at 32%.

For the compound `CCNCc1cccc2[nH]c(-c3n[nH]c4ccc(-c5cncc6ccccc56)cc34)nc12` [Example 37, Ethyl-[2-(5-isoquinolin-4-yl-1H-indazol-3-yl)-1H-benzoimidazol-4-ylmethyl]-amine], the figures for the Ki in assay [1] and in assay [3] were 0.22 nM and 0.76 nM, respectively. Moreover, the inhibition at 1 µM in assay [2] is 34.4%.

As for `c1ccc2[nH]c(-c3n[nH]c4ccc(-c5cncc6c5CCCN6)cc34)nc2c1` [Example 54], the Ki in assay [1] came out at 0.27 nM; in assay [3], 26 nM. Further, the inhibition at 1 µM in assay [2] was 81.5%.

For `O=C(Nc1cccc2c(-c3ccc4[nH]nc(-c5nc6ccccc6[nH]5)c4c3)cncc12)c1cccnc1` [Example 55, N-{4-[3-(1H-Benzoimidazol-2-yl)-1H-indazol-5-yl]-isoquinolin-8-yl}-nicotinamide], the Ki in assay [1] worked out at 1.1 nM; in assay [3] it was 41 nM. Moreover, in assay [2], the inhibition at 1 µM was found to be 83.6%.

Take `Cc1c(CO)cncc1-c1ccc2[nH]nc(-c3nc4ccccc4[nH]3)c2c1` [Example 72, {5-[3-(1H-Benzoimidazol-2-yl)-1H-indazol-5-yl]-4-methyl-pyridin-3-yl}-methanol]: the Ki in assay [1] was determined as 7.6 nM; in assay [3] it was 12 nM. Further, in assay [2], the inhibition at 1 µM was 48.6%.

Consider `OCc1cccc2[nH]c(-c3n[nH]c4ccc(-c5cncc6ccccc56)cc34)nc12` [Example 29, [2-(5-Isoquinolin-4-yl-1H-indazol-3-yl)-1H-benzoimidazol-4-yl]-methanol], for which the Ki in assay [1] was 0.47 nM; in assay [2], 2200 nM; in assay [3], 7.7 nM.
